From ChEMBL document CHEMBL1201862, “PubChem BioAssay data set” (2004)
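Where inhibition never reached the appropriate level, the endpoint shown equals the highest concentration tested. Otherwise, values were interpolated linearly from a five-concentration, 48-hour dose response in 96-well plates. Here, GI50 denotes the concentration required for 50% inhibition of growth.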 The source made the active and inactive calls. No stated cut-off is given here; in the data, active = GI50 up to about 1.1 µM and inactive = higher.

Tests used:
Assay in all cases: NCI tumour cell line growth inhibition, 48 h
786-0 = tested on: 786-0
A549 = tested on: A549
ACHN = tested on: ACHN
BT-549 = tested on: BT-549
CAKI-1 = tested on: CAKI-1
CCRF-CEM = tested on: CCRF-CEM
COLO 205 = tested on: COLO 205
DU-145 = tested on: DU-145
EKVX = tested on: EKVX
HCC 2998 = tested on: HCC 2998
HCT-116 = tested on: HCT-116
HCT-15 = tested on: HCT-15
HOP-62 = tested on: HOP-62
HOP-92 = tested on: HOP-92
HT-29 = tested on: HT-29
IGROV-1 = tested on: IGROV-1
K562 = tested on: K562
KM12 = tested on: KM12
LOX IMVI = tested on: LOX IMVI
M14 = tested on: M14
MCF7 = tested on: MCF7
MDA-MB-231 = tested on: MDA-MB-231
MDA-MB-435 = tested on: MDA-MB-435
MDA-N = tested on: MDA-N
MOLT-4 = tested on: MOLT-4
Malme-3M = tested on: Malme-3M
NCI-H226 = tested on: NCI-H226
NCI-H23 = tested on: NCI-H23
NCI-H460 = tested on: NCI-H460
NCI-H522 = tested on: NCI-H522
NCI/ADR-RES = tested on: NCI/ADR-RES
OVCAR-3 = tested on: OVCAR-3
OVCAR-4 = tested on: OVCAR-4
OVCAR-5 = tested on: OVCAR-5
OVCAR-8 = tested on: OVCAR-8
PC-3 = tested on: PC-3
RPMI-8226 = tested on: RPMI-8226
RXF 393 = tested on: RXF 393
SF-295 = tested on: SF-295
SF-539 = tested on: SF-539
SK-MEL-28 = tested on: SK-MEL-28
SK-MEL-2 = tested on: SK-MEL-2
SK-MEL-5 = tested on: SK-MEL-5
SK-OV-3 = tested on: SK-OV-3
SN12C = tested on: SN12C
SNB-19 = tested on: SNB-19
SNB-75 = tested on: SNB-75
SR = tested on: SR
SW-620 = tested on: SW-620
T47D = tested on: T47D
TK-10 = tested on: TK-10
U-251 = tested on: U-251
UACC-257 = tested on: UACC-257
UACC-62 = tested on: UACC-62
UO-31 = tested on: UO-31
A498 = tested on: A498
SF-268 = tested on: SF-268
HL-60 = tested on: HL-60

Measured: GI50

CCN(C(=S)N[C@@H](Cc1ccccc1)C(=O)N[C@@H](CC(C)C)C(=O)OC)c1ccccc1
inactive: 786-0 > 100 µM | A549 78.2 µM | ACHN 47.3 µM | BT-549 69 µM | CAKI-1 > 100 µM | CCRF-CEM 33.5 µM | COLO 205 49.2 µM | DU-145 > 100 µM | EKVX > 100 µM | HCC 2998 > 100 µM | HCT-116 75 µM | HOP-62 > 100 µM | HOP-92 > 100 µM | HT-29 46 µM | IGROV-1 50.4 µM | K562 43.2 µM | KM12 50.9 µM | LOX IMVI > 100 µM | M14 > 100 µM | MCF7 34 µM | MDA-MB-231 > 100 µM | MDA-MB-435 > 100 µM | MDA-N > 100 µM | MOLT-4 23.4 µM | Malme-3M > 100 µM | NCI-H226 > 100 µM | NCI-H23 71.4 µM | NCI-H460 58.2 µM | NCI-H522 55.6 µM | NCI/ADR-RES > 100 µM | OVCAR-3 > 100 µM | OVCAR-4 > 100 µM | OVCAR-5 > 100 µM | OVCAR-8 > 100 µM | PC-3 63.1 µM | RPMI-8226 75.9 µM | RXF 393 > 100 µM | SF-295 > 100 µM | SF-539 > 100 µM | SK-MEL-28 > 100 µM | SK-MEL-2 > 100 µM | SK-MEL-5 > 100 µM | SK-OV-3 > 100 µM | SN12C > 100 µM | SNB-19 49.2 µM | SNB-75 > 100 µM | SR 24 µM | SW-620 50.6 µM | T47D > 100 µM | TK-10 > 100 µM | U-251 50.7 µM | UACC-257 > 100 µM | UACC-62 > 100 µM | UO-31 > 100 µM
49 µM: HCT-15

CN(C)C1(N(C)C)Oc2c(c(=O)n(C)c(=O)n2C)C(c2ccc(F)cc2)C1(F)F (configuration not stated)
> 100 µM: HCT-15
inactive: 786-0 > 100 µM | A498 > 100 µM | A549 > 100 µM | ACHN > 100 µM | BT-549 > 100 µM | CAKI-1 > 100 µM | CCRF-CEM > 100 µM | COLO 205 > 100 µM | DU-145 > 100 µM | EKVX > 100 µM | HCC 2998 > 100 µM | HCT-116 > 100 µM | HOP-62 > 100 µM | HOP-92 > 100 µM | KM12 > 100 µM | LOX IMVI > 100 µM | M14 > 100 µM | MCF7 > 100 µM | MDA-MB-231 > 100 µM | MDA-MB-435 > 100 µM | NCI-H226 > 100 µM | NCI-H23 > 100 µM | NCI-H460 > 100 µM | NCI/ADR-RES > 100 µM | OVCAR-3 > 100 µM | OVCAR-4 > 100 µM | OVCAR-5 > 100 µM | PC-3 > 100 µM | RPMI-8226 > 100 µM | RXF 393 > 100 µM | SF-268 > 100 µM | SF-295 > 100 µM | SK-MEL-28 > 100 µM | SK-MEL-2 > 100 µM | SK-MEL-5 > 100 µM | SK-OV-3 > 100 µM | SNB-19 > 100 µM | SNB-75 > 100 µM | SW-620 > 100 µM | T47D > 100 µM | TK-10 > 100 µM | U-251 > 100 µM | UACC-257 > 100 µM | UACC-62 > 100 µM | UO-31 > 100 µM

CC(C)(C)OC(=O)NCC(=O)NC1c2ccsc2/C(=N/O)[C@H]1O (some centres not stated)
> 100 µM: HCT-15
inactive: A498 > 100 µM | A549 > 100 µM | BT-549 > 100 µM | CAKI-1 > 100 µM | CCRF-CEM > 100 µM | COLO 205 > 100 µM | DU-145 > 100 µM | EKVX > 100 µM | HCC 2998 93.3 µM | HCT-116 > 100 µM | HL-60 > 100 µM | HOP-62 > 100 µM | HOP-92 7.36 µM | HT-29 > 100 µM | IGROV-1 > 100 µM | K562 5.28 µM | LOX IMVI > 100 µM | M14 > 100 µM | MCF7 > 100 µM | MDA-MB-231 > 100 µM | MDA-MB-435 > 100 µM | MDA-N > 100 µM | MOLT-4 > 100 µM | Malme-3M > 100 µM | NCI-H226 > 100 µM | NCI-H23 > 100 µM | NCI-H460 > 100 µM | NCI/ADR-RES > 100 µM | OVCAR-3 > 100 µM | OVCAR-4 > 100 µM | OVCAR-5 > 100 µM | OVCAR-8 > 100 µM | PC-3 > 100 µM | RXF 393 > 100 µM | SF-295 > 100 µM | SF-539 > 100 µM | SK-MEL-28 > 100 µM | SK-MEL-2 > 100 µM | SK-MEL-5 > 100 µM | SK-OV-3 > 100 µM | SN12C > 100 µM | SNB-19 > 100 µM | SR > 100 µM | SW-620 > 100 µM | T47D > 100 µM | TK-10 > 100 µM | U-251 > 100 µM | UACC-257 > 100 µM | UACC-62 > 100 µM | UO-31 > 100 µM
